These results are taken from PMC6173696, “Structural properties of a haemophore facilitate targeted elimination of the pathogen Porphyromonas gingivalis” (Nature Communications, 2018).

This series has as its system H413 gingival epithelial cell. The class given is cell-based, Human. As for the experimental part:
Human gingival epithelial cells were grown to confluence and seeded on plastic chamber slides (75 × 25 mm^2) for incubation in 5% CO2 atmosphere overnight. Bacterial cells were co-incubated with epithelial cells at 37 °C for 2 h. After exposure to the antibiotics, epithelial cells were washed in PBS and incubated in culture media containing 5% FCS for 24 h. Subsequently, samples in the chamber slides were fixed with 4% fresh paraformaldehyde in PBS for 30 min at room temperature, washed in PBS, and permeabilised by ice-cold methanol for 5 min. Samples were then blocked overnight with 10% FCS supplemented with 0.05% (v/v) Triton X-100 in PBS buffer. Intracellular P. gingivalis was stained using the primary antibody IIB2[44] and fluorochrome-conjugated secondary antibody. […] Labelled epithelial cells with invaded bacteria were detected using an Olympus FV1000 confocal laser scanning microscope. In addition, the intrinsic fluorescence of P8 allowed temporal tracking of internalisation of P8 into epithelial cells in a separate experiment. Live cell images were recorded using a DeltaVision Elite Core Microscope.
Supplementary Figure 23. (A) UV-vis spectra of 10 µM P8 alone and in the presence of 10 µM HusA. (B) Stability assay of P8 in the presence of gingival epithelial cell lysate. The intensity of P8 fluorescence was applied to monitor the stability of P8 in the presence of cell lysate. […]

`CC1=Cc2cc3[nH]c(cc4nc(cc5[nH]c(cc1n2)cc5C)C(C)=C4CCC(=O)N[C@@H](CCCCNC(=O)OC(C)(C)C)C(=O)NCCn1c([N+](=O)[O-])cnc1C)c(CCC(=O)O)c3C` [P8]: the “integrity of epithelial cells (confocal images)” value (20 µM P8) is given as “remain intact”. Moreover, for the setting “over a 2-h period”, the “accumulation in epithelial cells” value is on record as “progressive accumulation”.
